Test results from patent US10793564B2, “Amino acid compounds and methods of use” (Pliant Therapeutics, Inc., priority 2018, dated 2020).

These molecules were tested against recombinant human integrin αVβ6 (Homo sapiens (Human), UniProt P06756+P18564) (assay: Solid phase integrin αVβ6 binding assay). Conditions: inhibition of recombinant TGFβ1 LAP binding to coated integrin, IC50 presented in four ranges, read-out: αvβ6 Inhibition IC50 (nM) - range.
Protocol: (§1) Microplates were coated with recombinant human integrin αVβ6 (2 μg/mL) in PBS (100 μL/well 25° C., overnight). The coating solution was removed, washed with wash buffer (0.05% Tween 20; 0.5 mM MnCl2; in 1×TBS). The plate was blocked with 200 μL/well of Block Buffer (1% BSA; 5% sucrose; 0.5 mM MnCl2; in 1×TBS) at 37° C. for 2 h. Dilutions of testing compounds and recombinant TGFβ1 LAP (0.67 μg/mL) in binding buffer (0.05% BSA; 2.5% sucrose; 0.5 mM MnCl2; in 1×TBS) were added. The plate was incubated for 2 hours at 25° C., washed, and incubated for 1 hour with Biotin-Anti-hLAP. Bound antibody was detected by peroxidase-conjugated streptavidin. The IC50 values for testing compounds were calculated by a four-parameter logistic regression.
The compounds tested were compound samples prepared according to procedures described in the Synthetic Examples section, with the stereochemical purity as indicated in the Examples.
as §1, with “A third series of exemplary compounds was selected for testing in the solid phase integrin αVβ6 binding assay. The compounds tested were compound samples prepared according to procedures described in the Synthetic Examples section, with the stereochemical purity as indicated in the Examples. As in Example B1, microplates were” for “Microplates were”, “(0.67 g/mL)” for “(0.67 μg/mL)”

recombinant human integrin αVβ6, sequence (P06756 31-992): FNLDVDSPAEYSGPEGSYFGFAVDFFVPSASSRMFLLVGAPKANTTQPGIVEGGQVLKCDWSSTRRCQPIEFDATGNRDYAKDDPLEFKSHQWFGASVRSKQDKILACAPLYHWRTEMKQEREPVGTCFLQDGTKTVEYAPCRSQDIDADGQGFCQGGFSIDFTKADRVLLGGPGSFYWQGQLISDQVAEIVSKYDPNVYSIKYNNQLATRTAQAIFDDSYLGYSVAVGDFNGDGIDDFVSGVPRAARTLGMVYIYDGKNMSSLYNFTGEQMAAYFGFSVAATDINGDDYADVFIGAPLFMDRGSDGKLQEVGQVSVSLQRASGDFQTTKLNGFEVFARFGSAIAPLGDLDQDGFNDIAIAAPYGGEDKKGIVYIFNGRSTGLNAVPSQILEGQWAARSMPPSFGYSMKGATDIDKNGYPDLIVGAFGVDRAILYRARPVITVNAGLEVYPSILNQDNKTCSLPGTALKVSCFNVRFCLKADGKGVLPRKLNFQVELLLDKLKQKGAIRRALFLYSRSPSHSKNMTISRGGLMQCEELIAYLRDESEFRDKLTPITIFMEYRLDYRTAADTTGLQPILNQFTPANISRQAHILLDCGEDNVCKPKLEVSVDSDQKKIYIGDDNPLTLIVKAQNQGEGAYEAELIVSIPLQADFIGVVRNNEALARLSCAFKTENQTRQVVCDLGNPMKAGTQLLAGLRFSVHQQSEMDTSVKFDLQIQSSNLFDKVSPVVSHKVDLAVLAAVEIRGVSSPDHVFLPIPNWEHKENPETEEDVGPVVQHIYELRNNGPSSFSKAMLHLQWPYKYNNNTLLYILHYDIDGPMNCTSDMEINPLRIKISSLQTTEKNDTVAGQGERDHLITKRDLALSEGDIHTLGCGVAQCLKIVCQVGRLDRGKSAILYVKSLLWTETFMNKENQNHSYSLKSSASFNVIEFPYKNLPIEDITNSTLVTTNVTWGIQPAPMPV
recombinant human integrin αVβ6, sequence (P18564 22-707): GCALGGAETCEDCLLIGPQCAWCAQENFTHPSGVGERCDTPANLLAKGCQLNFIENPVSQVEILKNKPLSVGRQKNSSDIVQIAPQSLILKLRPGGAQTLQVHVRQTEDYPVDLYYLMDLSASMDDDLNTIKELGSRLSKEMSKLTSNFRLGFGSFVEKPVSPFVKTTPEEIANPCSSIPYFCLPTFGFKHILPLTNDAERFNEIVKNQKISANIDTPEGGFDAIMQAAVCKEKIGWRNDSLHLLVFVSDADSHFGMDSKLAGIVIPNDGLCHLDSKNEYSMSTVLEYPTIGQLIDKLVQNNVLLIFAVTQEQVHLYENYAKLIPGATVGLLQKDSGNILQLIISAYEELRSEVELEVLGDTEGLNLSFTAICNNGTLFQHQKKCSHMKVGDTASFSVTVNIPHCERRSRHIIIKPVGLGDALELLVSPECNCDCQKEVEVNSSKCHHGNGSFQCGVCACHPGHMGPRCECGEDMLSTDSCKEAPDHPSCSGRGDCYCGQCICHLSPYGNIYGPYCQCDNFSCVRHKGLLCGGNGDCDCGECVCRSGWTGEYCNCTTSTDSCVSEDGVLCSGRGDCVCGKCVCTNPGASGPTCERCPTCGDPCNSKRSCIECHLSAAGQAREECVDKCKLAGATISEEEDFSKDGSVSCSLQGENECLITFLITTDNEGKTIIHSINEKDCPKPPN

IC50 | SMILES
250 to 1000 nM | COC[C@@H](F)CN(CCCCc1ccc2c(n1)NCCC2)CC[C@H](Nc1ncc(C(F)(F)F)cn1)C(=O)O [Compound 85, (S)-4-(((S)-2-fluoro-3-methoxypropyl) (4-(5,6,7,8-tetrahydro-1,8-naphthyridin-2-yl)butyl)amino)-2-((5-(trifluoromethyl)pyrimidin-2-yl)amino) butanoic Acid]
< 50 nM | Cc1nc(N[C@@H](CCN(CCCCc2ccc3c(n2)NCCC3)CCOc2cccnc2C)C(=O)O)c2ccc(F)cc2n1 [Compound 53, (S)-2-((7-fluoro-2-methylquinazolin-4-yl)amino)-4-((2-((2-methylpyridin-3-yl)oxy)ethyl) (4-(5,6,7,8-tetrahydro-1,8-naphthyridin-2-yl)butyl)amino) butanoic Acid]
> 1000 nM | O=C(O)[C@H](CCN(CCCCc1ccc2c(n1)NCCC2)CC(F)F)Nc1ncncc1-c1ccccc1 [Compound 119, (S)-4-((2,2-difluoroethyl) (4-(5,6,7,8-tetrahydro-1,8-naphthyridin-2-yl)butyl)amino)-2-((5-phenylpyrimidin-4-yl)amino) butanoic Acid]
< 50 nM | COCCN(CCCCc1ccc2c(n1)NCCC2)CC[C@H](Nc1ncnc2c(C(F)(F)F)cccc12)C(=O)O [Compound 15, (S)-4-((2-methoxyethyl) (4-(5,6,7,8-tetrahydro-1,8-naphthyridin-2-yl)butyl)amino)-2-((8-(trifluoromethyl)quinazolin-4-yl)amino) butanoic Acid]
50 to 250 nM | COCCN(CCCCc1ccc2c(n1)NCCC2)CC[C@H](Nc1ncnc2cc(Cl)ccc12)C(=O)O [Compound 37, (S)-2-((7-chloroquinazolin-4-yl)amino)-4-((2-methoxyethyl) (4-(5,6,7,8-tetrahydro-1,8-naphthyridin-2-yl)butyl)amino) butanoic Acid]
< 50 nM | CO[C@H](C)CN(CCCCc1ccc2c(n1)NCCC2)CC[C@H](Nc1ccnc(-c2ccccc2)n1)C(=O)O [Compound 73, (S)-4-(((R)-2-methoxypropyl) (4-(5,6,7,8-tetrahydro-1,8-naphthyridin-2-yl)butyl)amino)-2-((2-phenylpyrimidin-4-yl)amino) butanoic Acid]
< 50 nM | COCCN(CCCCc1ccc2c(n1)NCCC2)CC[C@H](Nc1ncnc2cnccc12)C(=O)O [Compound 17, (S)-4-((2-methoxyethyl) (4-(5,6,7,8-tetrahydro-1,8-naphthyridin-2-yl)butyl)amino)-2-(pyrido[3,4-d]pyrimidin-4-ylamino) butanoic Acid]
< 50 nM | Cc1ccc(OCCN(CCCCc2ccc3c(n2)NCCC3)CC[C@H](Nc2nc(C)nc3cc(F)ccc23)C(=O)O)cn1 [Compound 56, (S)-2-((7-fluoro-2-methylquinazolin-4-yl)amino)-4-((2-((6-methylpyridin-3-yl)oxy)ethyl) (4-(5,6,7,8-tetrahydro-1,8-naphthyridin-2-yl)butyl)amino) butanoic Acid]
< 50 nM | CO[C@@H](C)CN(CCCCc1ccc2c(n1)NCCC2)CC[C@H](Nc1ncnc2ccccc12)C(=O)O [Compound 25, (S)-4-(((S)-2-methoxypropyl) (4-(5,6,7,8-tetrahydro-1,8-naphthyridin-2-yl)butyl)amino)-2-(quinazolin-4-ylamino) butanoic Acid]
< 50 nM | CN(C)C(=O)CN(CCCCc1ccc2c(n1)NCCC2)CC[C@H](Nc1ccnc(C(F)(F)F)n1)C(=O)O [Compound 145, (S)-4-((2-(dimethylamino)-2-oxoethyl) (4-(5,6,7,8-tetrahydro-1,8-naphthyridin-2-yl)butyl)amino)-2-((2-(trifluoromethyl)pyrimidin-4-yl)amino) butanoic Acid]
< 50 nM | O=C(O)[C@H](CCN(CCCCc1ccc2c(n1)NCCC2)CCOC(F)F)Nc1ncnc2ccccc12 [Compound 35, (S)-4-((2-(difluoromethoxy)ethyl) (4-(5,6,7,8-tetrahydro-1,8-naphthyridin-2-yl)butyl)amino)-2-(quinazolin-4-ylamino) butanoic Acid]
50 to 250 nM | CS(=O)(=O)CCN(CCCCc1ccc2c(n1)NCCC2)CC[C@H](Nc1ncnc2[nH]ncc12)C(=O)O [Compound 125, (S)-2-((1H-pyrazolo[3,4-d]pyrimidin-4-yl)amino)-4-((2-(methylsulfonyl)ethyl) (4-(5,6,7,8-tetrahydro-1,8-naphthyridin-2-yl)butyl)amino) butanoic Acid]
250 to 1000 nM | O=C(O)[C@H](CCN(CCCCc1ccc2c(n1)NCCC2)CC(F)F)Nc1ncnc2[nH]ncc12 [Compound 112, (S)-2-((1H-pyrazolo[3,4-d]pyrimidin-4-yl)amino)-4-((2,2-difluoroethyl) (4-(5,6,7,8-tetrahydro-1,8-naphthyridin-2-yl)butyl)amino) butanoic Acid]
> 1000 nM | O=C(O)[C@H](CCN(CCCCc1ccc2c(n1)NCCC2)CC(F)F)Nc1ccnc(C(F)(F)F)n1 [Compound 97, (S)-4-((2,2-difluoroethyl) (4-(5,6,7,8-tetrahydro-1,8-naphthyridin-2-yl)butyl)amino)-2-((2-(trifluoromethyl)pyrimidin-4-yl)amino) butanoic Acid]
< 50 nM | COCCN(CCCCc1ccc2c(n1)NCCC2)CC[C@H](Nc1ncnc2c(F)cccc12)C(=O)O [Compound 20, (S)-2-((8-fluoroquinazolin-4-yl)amino)-4-((2-methoxyethyl) (4-(5,6,7,8-tetrahydro-1,8-naphthyridin-2-yl)butyl)amino) butanoic Acid]
< 50 nM | O=C(O)[C@H](CCN(CCCCc1ccc2c(n1)NCCC2)CC1CCO1)Nc1ncnc2ccccc12 (stereo partly drawn) [Compound 129, (2S)-4-((oxetan-2-ylmethyl) (4-(5,6,7,8-tetrahydro-1,8-naphthyridin-2-yl)butyl)amino)-2-(quinazolin-4-ylamino) butanoic Acid]
< 50 nM | CN(C)C(=O)CN(CCCCc1ccc2c(n1)NCCC2)CC[C@H](Nc1ncnc2c1cnn2C)C(=O)O [Compound 140, (S)-4-((2-(dimethylamino)-2-oxoethyl) (4-(5,6,7,8-tetrahydro-1,8-naphthyridin-2-yl)butyl)amino)-2-((1-methyl-1H-pyrazolo[3,4-d]pyrimidin-4-yl)amino) butanoic Acid]
> 1000 nM | CS(=O)(=O)CCN(CCCCc1ccc2c(n1)NCCC2)CC[C@H](Nc1ncc(Br)cn1)C(=O)O [Compound 103, (S)-2-((5-bromopyrimidin-2-yl)amino)-4-((2-(methylsulfonyl)ethyl) (4-(5,6,7,8-tetrahydro-1,8-naphthyridin-2-yl)butyl)amino) butanoic Acid]
< 50 nM | O=C(O)[C@H](CCN(CCCCc1ccc2c(n1)NCCC2)CCOc1cc(F)cc(F)c1)Nc1ncnc2ccccc12 [Compound 47, (S)-4-((2-(3,5-difluorophenoxy)ethyl) (4-(5,6,7,8-tetrahydro-1,8-naphthyridin-2-yl)butyl)amino)-2-(quinazolin-4-ylamino) butanoic Acid]
< 50 nM | O=C(O)[C@H](CCN(CCCCc1ccc2c(n1)NCCC2)C1CC1)Nc1ncc(C(F)(F)F)cn1 [Compound 114, (S)-4-(cyclopropyl(4-(5,6,7,8-tetrahydro-1,8-naphthyridin-2-yl)butyl)amino)-2-((5-(trifluoromethyl)pyrimidin-2-yl)amino) butanoic Acid]
< 50 nM | Cc1ncccc1OCCN(CCCCc1ccc2c(n1)NCCC2)CC[C@H](Nc1ncnc2ccccc12)C(=O)O [Compound 52, (S)-4-((2-((2-methylpyridin-3-yl)oxy)ethyl) (4-(5,6,7,8-tetrahydro-1,8-naphthyridin-2-yl)butyl)amino)-2-(quinazolin-4-ylamino) butanoic Acid]
50 to 250 nM | O=C(O)[C@H](CCN(CCCCc1ccc2c(n1)NCCC2)C1CC1)Nc1ncnc2[nH]ncc12 [Compound 116, (S)-2-((1H-pyrazolo[3,4-d]pyrimidin-4-yl)amino)-4-(cyclopropyl(4-(5,6,7,8-tetrahydro-1,8-naphthyridin-2-yl)butyl)amino) butanoic Acid]
> 1000 nM | CS(=O)(=O)CCN(CCCCc1ccc2c(n1)NCCC2)CC[C@H](Nc1cc(-n2cccn2)ncn1)C(=O)O [Compound 126, (S)-2-((6-(1H-pyrazol-1-yl)pyrimidin-4-yl)amino)-4-((2-(methylsulfonyl)ethyl) (4-(5,6,7,8-tetrahydro-1,8-naphthyridin-2-yl)butyl)amino) butanoic Acid]
< 50 nM | CO[C@H](C)CN(CCCCc1ccc2c(n1)NCCC2)CC[C@H](Nc1ncc(F)cn1)C(=O)O [Compound 78, (S)-2-((5-fluoropyrimidin-2-yl)amino)-4-(((R)-2-methoxypropyl) (4-(5,6,7,8-tetrahydro-1,8-naphthyridin-2-yl)butyl)amino) butanoic Acid]
